# Measured values reported in publication PMC6222450, “Computer-Aided Studies for Novel Arylhydantoin 1,3,5-Triazine Derivatives as 5-HT6 Serotonin Receptor Ligands with Antidepressive-Like, Anxiolytic and Antiobesity Action In Vivo” (Molecules : A Journal of Synthetic Chemistry and Natural …, 2018).
# Experiments:
# 5-HT1A = molecular target: T1, 5-HT1A (Homo sapiens, UniProt P08908); assay: Radioligand binding assay, 5-HT1A, [3H]-8-OH-DPAT; conditions: human receptor stably expressed in HEK-293 cells
# T1 construct: expressed in transfected cells; host or cells: HEK-293
# T1 sequence (P08908 1-422): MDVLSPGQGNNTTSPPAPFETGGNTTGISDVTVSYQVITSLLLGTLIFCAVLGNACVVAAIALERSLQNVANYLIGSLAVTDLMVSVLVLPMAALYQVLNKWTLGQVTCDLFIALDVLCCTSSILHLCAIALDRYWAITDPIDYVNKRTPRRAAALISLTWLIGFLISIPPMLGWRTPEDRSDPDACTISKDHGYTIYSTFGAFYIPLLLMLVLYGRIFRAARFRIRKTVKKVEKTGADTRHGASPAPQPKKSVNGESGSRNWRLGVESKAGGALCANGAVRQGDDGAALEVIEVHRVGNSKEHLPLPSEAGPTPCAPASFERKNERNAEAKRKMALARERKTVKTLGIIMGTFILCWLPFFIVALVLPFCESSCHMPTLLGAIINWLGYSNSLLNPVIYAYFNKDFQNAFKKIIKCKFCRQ
# 5-HT2A = molecular target: T2, 5-HT2A (Homo sapiens, UniProt P28223); assay: Radioligand binding assay, 5-HT2A, [3H]-Ketanserin; conditions: human receptor stably expressed in HEK-293 cells
# T2 construct: expressed in transfected cells; host or cells: HEK-293
# human serotonin 5-HT6R = molecular target: T3, human serotonin 5-HT6R (Homo sapiens, UniProt P50406); assay: Radioligand binding assay, 5-HT6R, [3H]-LSD displacement; conditions: human receptor stably expressed in HEK-293 cells; mean of at least two independent experiments; read-out: Ki 5-HT6 [3H]-LSD
# T3 construct: expressed in transfected cells; host or cells: HEK-293
# Procedure: Five selective radioligands were employed (Table 1).
# Radioligand binding assays were used to determine the affinity of the synthesized compounds for human serotonin 5-HT6R, which were stably expressed in HEK-293 cells. […] Each compound was tested in triplicate at 7 to 8 different concentrations (10^−11 to 10^−4 M). The inhibition constants (Ki) were calculated using the Cheng–Prusoff equation [40], and the results are expressed as the mean of at least two independent experiments.
# dopaminergic D2LR = molecular target: T4, dopaminergic D2LR (Homo sapiens, UniProt P14416); assay: Radioligand binding assay, D2LR, [3H]-Raclopride; conditions: human D2L receptor stably expressed in HEK-293 cells; read-out: Ki D2 [3H]-Raclopride
# T4 construct: expressed in transfected cells; host or cells: HEK-293
# 5-HT7bR = molecular target: T5, 5-HT7bR (Homo sapiens, UniProt P34969); assay: Radioligand binding assay, 5-HT7bR, [3H]-5-CT; conditions: human 5-HT7b receptor stably expressed in HEK-293 cells; read-out: Ki 5-HT7 [3H]-5-CT
# T5 construct: expressed in transfected cells; host or cells: HEK-293
# T5 sequence (P34969 1-432 limits assumed): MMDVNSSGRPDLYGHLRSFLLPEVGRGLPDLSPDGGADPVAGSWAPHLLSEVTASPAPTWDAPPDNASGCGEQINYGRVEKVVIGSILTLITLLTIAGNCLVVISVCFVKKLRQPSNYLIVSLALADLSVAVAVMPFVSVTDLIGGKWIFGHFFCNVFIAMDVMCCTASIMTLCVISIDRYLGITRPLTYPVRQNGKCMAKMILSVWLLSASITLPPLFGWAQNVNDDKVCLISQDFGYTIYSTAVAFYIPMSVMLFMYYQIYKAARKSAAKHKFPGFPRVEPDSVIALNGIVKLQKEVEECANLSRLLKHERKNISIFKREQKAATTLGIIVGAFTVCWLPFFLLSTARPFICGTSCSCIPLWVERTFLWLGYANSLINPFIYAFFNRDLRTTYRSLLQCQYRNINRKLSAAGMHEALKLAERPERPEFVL
# T3 sequence (P50406 whole entry): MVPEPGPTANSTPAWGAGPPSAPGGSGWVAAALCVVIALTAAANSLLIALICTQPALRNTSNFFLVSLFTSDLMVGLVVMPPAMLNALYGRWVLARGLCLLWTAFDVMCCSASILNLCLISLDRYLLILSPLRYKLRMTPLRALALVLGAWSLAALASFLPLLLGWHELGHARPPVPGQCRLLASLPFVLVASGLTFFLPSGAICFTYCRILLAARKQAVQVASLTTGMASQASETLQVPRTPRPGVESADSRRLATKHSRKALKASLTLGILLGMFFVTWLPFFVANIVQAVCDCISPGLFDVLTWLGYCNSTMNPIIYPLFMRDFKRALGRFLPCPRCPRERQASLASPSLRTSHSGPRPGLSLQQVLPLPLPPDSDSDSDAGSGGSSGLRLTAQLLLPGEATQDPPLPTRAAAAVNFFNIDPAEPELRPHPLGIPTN
# T2 sequence (P28223 whole entry): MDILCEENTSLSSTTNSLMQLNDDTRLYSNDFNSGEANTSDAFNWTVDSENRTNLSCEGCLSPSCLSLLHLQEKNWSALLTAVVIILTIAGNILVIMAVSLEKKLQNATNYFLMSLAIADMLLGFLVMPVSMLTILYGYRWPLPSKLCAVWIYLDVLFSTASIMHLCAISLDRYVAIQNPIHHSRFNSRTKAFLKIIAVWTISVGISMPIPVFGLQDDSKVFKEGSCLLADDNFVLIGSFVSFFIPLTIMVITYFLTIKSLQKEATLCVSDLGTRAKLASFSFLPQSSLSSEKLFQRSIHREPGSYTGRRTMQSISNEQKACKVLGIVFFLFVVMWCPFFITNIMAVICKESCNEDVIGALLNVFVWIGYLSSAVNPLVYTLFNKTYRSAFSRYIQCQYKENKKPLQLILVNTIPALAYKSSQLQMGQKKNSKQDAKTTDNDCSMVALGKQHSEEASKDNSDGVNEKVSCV
# T4 sequence (P14416 whole entry): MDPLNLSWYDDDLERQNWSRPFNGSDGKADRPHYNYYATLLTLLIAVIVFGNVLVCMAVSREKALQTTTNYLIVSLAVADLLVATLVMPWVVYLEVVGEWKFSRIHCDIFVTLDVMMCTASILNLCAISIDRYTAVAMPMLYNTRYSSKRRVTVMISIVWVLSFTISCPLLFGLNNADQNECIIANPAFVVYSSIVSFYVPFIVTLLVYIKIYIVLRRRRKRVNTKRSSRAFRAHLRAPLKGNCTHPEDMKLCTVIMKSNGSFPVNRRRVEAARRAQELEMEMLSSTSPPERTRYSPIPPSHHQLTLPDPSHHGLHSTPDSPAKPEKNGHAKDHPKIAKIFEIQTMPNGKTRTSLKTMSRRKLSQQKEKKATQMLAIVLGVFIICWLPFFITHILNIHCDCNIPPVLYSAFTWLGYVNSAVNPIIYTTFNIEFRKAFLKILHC
SMILES,Ki (5-HT1A) [µM],Ki (5-HT2A) [µM],Ki (human serotonin 5-HT6R) [nM],Ki (dopaminergic D2LR) [µM],Ki (5-HT7bR) [nM]
"CN1CCN(c2nc(N)nc(CN3C(=O)N(Cc4ccc(F)cc4)C(C)(C)C3=O)n2)CC1 [Compound 13, 1-(4-Fluorobenzyl)-3-((4-amino-6-(4-methylpiperazin-1-yl)-1,3,5-triazin-2-yl)methyl)-5,5-dimethylimidazolidine-2,4-dione]",48.4,3.55,663,6.56,953
"CN1CCN(c2nc(N)nc(CN3C(=O)N(Cc4cccc(F)c4)C(C)(C)C3=O)n2)CC1 [Compound 14, 1-(3-Fluorobenzyl)-3-((4-amino-6-(4-methylpiperazin-1-yl)-1,3,5-triazin-2-yl)methyl)-5,5-dimethylimidazolidine-2,4-dione]",37.1,0.239,447,6.58,88
"CN1CCN(c2nc(N)nc(CN3C(=O)N(Cc4cccc(Br)c4)C(C)(C)C3=O)n2)CC1 [Compound 15, 1-(3-Bromobenzyl)-3-((4-amino-6-(4-methylpiperazin-1-yl)-1,3,5-triazin-2-yl)methyl)-5,5-dimethylimidazolidine-2,4-dione]",12.9,1.33,570,6.68,571
"COc1cccc(CN2C(=O)N(Cc3nc(N)nc(N4CCN(C)CC4)n3)C(=O)C2(C)C)c1 [Compound 16, 1-(3-Methoxybenzyl)-3-((4-amino-6-(4-methylpiperazin-1-yl)-1,3,5-triazin-2-yl)methyl)-5,5-dimethylimidazolidine-2,4-dione]",23.9,2.04,692,15.5,3590
"Cc1cccc(CN2C(=O)N(Cc3nc(N)nc(N4CCN(C)CC4)n3)C(=O)C2(C)C)c1 [Compound 17, 1-(3-Methylbenzyl)-3-((4-amino-6-(4-methylpiperazin-1-yl)-1,3,5-triazin-2-yl)methyl)-5,5-dimethylimidazolidine-2,4-dione]",17,0.817,895,5.21,420
"CN1CCN(c2nc(N)nc(CN3C(=O)NC(C)(c4ccccc4)C3=O)n2)CC1 (centres unmarked) [Compound 19, 3-((4-Amino-6-(4-methylpiperazin-1-yl)-1,3,5-triazin-2-yl)methyl)-5-methyl-5-phenylimidazolidine-2,4-dione]",31.6,12.1,726,41,1100
"CN1CCN(c2nc(N)nc(CN3C(=O)NC(C)(c4cccc(Cl)c4)C3=O)n2)CC1 (centres unmarked) [Compound 20, 3-((4-Amino-6-(4-methylpiperazin-1-yl)-1,3,5-triazin-2-yl)methyl)-5-(3-chlorophenyl)-5-methylimidazolidine-2,4-dione]",4.1,7.4,418,16.8,791
"CN1CCN(c2nc(N)nc(CN3C(=O)NC(C)(c4cc(Cl)ccc4Cl)C3=O)n2)CC1 (centres unmarked) [Compound 21, 3-((4-Amino-6-(4-methylpiperazin-1-yl)-1,3,5-triazin-2-yl)methyl)-5-(2,5-dichlorophenyl)-5-methylimidazolidine-2,4-dione]",26.2,11.1,403,11.5,1560
"CN1CCN(c2nc(N)nc(CN3C(=O)NC(C)(c4ccc(Cl)cc4Cl)C3=O)n2)CC1 (centres unmarked) [Compound 22, 3-((4-Amino-6-(4-methylpiperazin-1-yl)-1,3,5-triazin-2-yl)methyl)-5-(2,4-dichlorophenyl)-5-methylimidazolidine-2,4-dione]",14,10.8,457,15.1,10100
"Cc1ccc(C2(C)NC(=O)N(Cc3nc(N)nc(N4CCN(C)CC4)n3)C2=O)cc1 (centres unmarked) [Compound 24, 3-((4-Amino-6-(4-methylpiperazin-1-yl)-1,3,5-triazin-2-yl)methyl)-5-(4-methylphenyl)-5-methylimidazolidine-2,4-dione]",22.3,24.4,667,23.3,564
